Patent US12109184B2, “Personalized methods of treating cancer” (CANCER RESEARCH TECHNOLOGY LIMITED, priority 2020, dated 2024)

Columns and labels:
Type in all cases: cell-based
[1] = test system: MDA-MB-231, MIAPaCa-2 and PANC-1 cells; assay: Cell counting during cysteine starvation, starvation-sensitive cell lines; details: medium without cysteine
Description: The base medium formulation contained 0.2 mM L-histidine, 0.4 mM L-isoleucine, 0.4 mM L-leucine, 0.4 mM L-lysine, 0.2 mM L-phenylalanine, 0.4 mM L-threonine, 0.08 mM L-tryptophan, 0.4 mM L-valine, 0.2 mM L-arginine, 2 mM L-glutamine, 0.2 mM L-tyrosine, 0.4 mM L-alanine, 0.3 mM L-proline, 0.15 mM L-glutamic acid, 0.1 mM L-aspartic acid, 0.2 mM L-asparagine, and 0.4 mM glycine.
DAPI-stained cell nuclei were detected via microscopy.
AMD1 inhibitor sardomozide/SAM486A, GPX4 inhibitor RSL3, and CSE inhibitor beta-cyano-L-alanine were used.
For experiments using spermine oxidase (SMOX) and polyamine oxidase (PAOX) inhibitors or MTOB, cells were pre-treated with stated concentrations for 16 hours in complete medium. After pre-treatment, cells were washed in PBS, and treatment was continued in complete or cysteine-free medium for stated times. After treatment was finished, cells were fixed and stained as described above. For experiments using MTA, polyamines, GPX4 and CSE inhibitors, treatment started at the same time as cysteine starvation. For experiments involving hypoxic conditions, cells were seeded in normoxic conditions and allowed to adhere for 24 hours before control and cysteine starvation medium was added and cells were immediately transferred either to a humidified cell culture incubator set to 37° C. in 20% O2 (normoxia), or a hypoxia chamber set to 37° C. in 1% O2 (hypoxia) for the stated times. Cells were fixed immediately and stained as described above.

[2] = test system: MTAP-expressing HCT116 cells; assay: Cell counting during cysteine starvation, MTAP-expressing HCT116; details: −Cys with or without methionine
Description: [NT] Successfully transfected cells were selected with puromycin and grown as clonal colonies. Clones were selected based initially on MTA efflux measured by liquid chromatography mass spectrometry (LC-MS). Clones with greatest MTA efflux were selected, and methylthioadenosine phosphorylase knockout (MTAP-KO) was then confirmed by western blot. MTAP-KO HCT116 cells were transfected with pCMV-Hygro-MTAP and pCMV-Hygro-negative control vector, selected using hygromycin B, and grown as clonal colonies. Clones were selected based initially on MTA efflux measured by LC-MS. Clones with low MTA efflux were selected, then MTAP re-expression was confirmed by western blot. […] DAPI-stained cell nuclei were detected via microscopy. For experiments using spermine oxidase (SMOX) and polyamine oxidase (PAOX) inhibitors or MTOB, cells were pre-treated with stated concentrations for 16 hours in complete medium. After pre-treatment, cells were washed in PBS, and treatment was continued in complete or cysteine-free medium for stated times. After treatment was finished, cells were fixed and stained as described above. For experiments using MTA, polyamines, GPX4 and CSE inhibitors, treatment started at the same time as cysteine starvation. For experiments involving hypoxic conditions, cells were seeded in normoxic conditions and allowed to adhere for 24 hours before control and cysteine starvation medium was added and cells were immediately transferred either to a humidified cell culture incubator set to 37° C. in 20% O2 (normoxia), or a hypoxia chamber set to 37° C. in 1% O2 (hypoxia) for the stated times. Cells were fixed immediately and stained as described above.

[3] = test system: MDA-MB-231, PANC-1, and MIAPaCa-2 cells; assay: CellROX assay on live cells, starvation-sensitive cell lines; details: cysteine starved, MTAP deleted cells, 18 h
Description: Cells were seeded as described above. Live cells were stained with Hoechst 33342 nuclear stain for 20 min. The medium was removed, and cells were stained in 100 μl medium containing CellTracker™ Green CMFDA Dye and Hoechst stain for 40 min. The cells were then washed with PBS, and 300 μl of the relevant experimental medium was added for 1 hour. Then, CellROX® Deep Red was spiked into the medium, and the cells were incubated for 40 min. The medium was removed, the cells were washed with PBS, and new relevant experimental medium including CellROX was added. The cells were imaged using an Operetta automated microscope platform set to 37° C. in 5% CO2 every hour for 16-24 hours. I

SMILES: CSCC[C@H](N)C(=O)O [methionine]
- sensitivity to cysteine starvation versus methionine concentration ([1]; methionine 0 to 10 μM, 17 h and 41 h): remained sensitive to cysteine starvation down to 5 μM methionine
- sensitivity to cysteine starvation versus methionine concentration ([1]; methionine 10 μM-1000 μM, 20 h): remained highly sensitive
- effect of presence of methionine during cysteine starvation [2]: advantageous
- ROS levels (CellROX) in response to methionine concentration [3]: increased in a dose-dependent manner
